The text below walks through data of patent publication US20140323500A1, “NADPH OXIDASE 4 INHIBITORS AND USE THEREOF” (GENKYOTEX SA, priority 2011, published 2014).

In one test the target is T1, human Nox4 (Homo sapiens, UniProt Q9NPH5).
T1 construct: expressed in transfected cells; host or cells: T-REx-293 (hNOX4 T-REx-293), tetracycline-induced; membrane fraction
T1 sequence (Q9NPH5 1-578): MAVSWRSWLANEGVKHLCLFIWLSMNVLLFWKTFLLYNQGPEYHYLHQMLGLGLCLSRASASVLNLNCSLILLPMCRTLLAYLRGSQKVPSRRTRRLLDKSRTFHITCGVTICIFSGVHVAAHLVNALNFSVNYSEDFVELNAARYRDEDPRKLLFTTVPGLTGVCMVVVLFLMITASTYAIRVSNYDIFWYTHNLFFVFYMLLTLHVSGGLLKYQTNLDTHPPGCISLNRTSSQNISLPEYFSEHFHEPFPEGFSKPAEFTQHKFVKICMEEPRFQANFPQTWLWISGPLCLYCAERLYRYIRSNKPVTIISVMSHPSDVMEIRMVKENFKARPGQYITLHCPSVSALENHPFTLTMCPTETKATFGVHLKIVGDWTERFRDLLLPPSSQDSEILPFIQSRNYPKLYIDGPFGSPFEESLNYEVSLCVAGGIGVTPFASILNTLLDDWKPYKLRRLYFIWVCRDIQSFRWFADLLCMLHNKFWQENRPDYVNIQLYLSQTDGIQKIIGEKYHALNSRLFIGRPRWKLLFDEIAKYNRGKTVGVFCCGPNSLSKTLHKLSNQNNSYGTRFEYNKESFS
T1 sequence (P13498 2-195 partner limits assumed): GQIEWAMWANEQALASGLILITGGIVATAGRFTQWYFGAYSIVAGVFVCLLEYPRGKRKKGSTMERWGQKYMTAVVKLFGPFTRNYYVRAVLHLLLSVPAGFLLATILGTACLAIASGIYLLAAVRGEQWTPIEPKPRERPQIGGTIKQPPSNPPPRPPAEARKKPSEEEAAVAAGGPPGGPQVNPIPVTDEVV
As to the kind of experiment: ROS production by membranes expressing human Nox4, cell-free Amplex Red assay. It is filed as biochemical. The settings on record: cell-free membranes, Amplex Red; Cheng-Prusoff; average of at least three experiments in triplicate; read-out: Ki hNox4. An excerpt: (§1) The Nox4 activity of Nox4 inhibitors according to the invention may be tested for their activity in the inhibition or reduction of formation of reactive oxygen species (ROS) from oxygen in cell free assays. In order to fully characterise Nox4 inhibitors, Nox subunit-specific cell-free, membrane-based systems have been developed and specific recombinant proteins have been added to membranes heterologously over-expressing their specific iso form. Nox enzymes produce superoxide (O2.−) as primary product, however due to the high instability and reactivity of this molecule which dismutates naturally into hydrogen peroxide (H2O2), therefore, read-out techniques involving probes that do measure H2O2 were used (e.g. using Amplex Red as a probe in order to facilitate consistent and accurate measurements). The activity of the compounds is tested in the following cell free assay using the techniques described here below:
Transfected T-REx™-CHO cells (R718-07) purchased from Invitrogen and T-REx™-293 cell line expressing hNOX4 (hNOX4 T-REx™-293) (Serrander et al., 2007, Biochem. J., 406, 105-114) were cultured in […]. Both media were supplemented with 10% FBS, 2 mM glutamine, penicillin (100 U/ml) and streptomycin (100 μg/ml). Selection pressure was maintained by continuous inclusion of blasticidin (5 μg/ml), and/or G418 (0.25 mg/ml), and/or Hygromycin (0.25 mg/ml) and/or zeocin (0.025 mg/ml).
(§2) Human Nox1, Nox2, Nox4, and Nox5 expression were induced with Tetracycline (1 μg/ml) during 24 h prior to the membrane preparation Membranes from transfected cells overexpressing Nox1, Nox2, Nox4 or Nox5 were prepared as previously described in Palicz et al., 2001, J. Biol. Chem., 76, 3090-3097. After resuspension in sonication buffer (11% sucrose, 120 mM NaCl, 1 mM EGTA in PBS, pH 7.4 for Nox4- or NOX5-expressing cells) or in relax buffer (10 mM Pipes, 3 mM NaCl, 3.5 mM MgCl2, 0.1M KCl, pH 7.4), cells were broken by sonication and centrifuged (200 g, 10 min). The supernatant was layered onto a 17/40% (w/v) discontinuous sucrose gradient and centrifuged (150,000×g for 60 min). Membrane fractions were collected from the 17/40% interface and were stored at −80° C. Protein concentration was determined with the Bradford reagent.
(§3) Reactive Oxygen Species (ROS) production by membranes expressing either human Nox1, or human Nox2 or human Nox4 or human Nox5 or by xanthine/xanthine oxidase were measured using the Amplex Red (AR) method following a slightly modified version of the manufacturer's instruction manual (Invitrogen). Briefly, membranes or xanthine were incubated in PBS with Amplex Red, Horse Radish Peroxidase (HRP) and appropriated co-factors. ROS production was induced by addition of NADPH to NOX-expressing membrane or by addition of xanthine to xanthine oxidase. Non-specific signal was measured in the absence of membranes or in the absence of xanthine.
Antagonist activity of compounds was measured in the presence of increasing concentrations ranging from 1 nM to 100 μM. After an incubation of 20 min in a plate shaker and incubator (Titramax 1000, VWR) at 37° C. with weak agitation (300 rpm), ROS levels were measured for 10 min in a BMG Fluostar microplate reader with excitation and emission wavelengths of 544 nm and 590 nm respectively.
Data were analysed using Prism (GraphPad Software Inc., San Diego, Calif.). Ki values were calculated using the Cheng-Prusoff equation and represent the average of at least three individual experiments performed in triplicate (Table 1). Nox4 inhibition was compared to that measured for Simvastatin (Enzo Life Sciences, CAS Number 79902-63-9) using the method described in Example 1. Reactive Oxygen Species (ROS) production by membranes expressing human Nox4 was measured using the Amplex Red (AR).

Another test has as its target T2, human Nox2 (Homo sapiens, UniProt P04839).
T2 construct: host or cells: T-REx-CHO (hNOX2 T-REx-CHO), tetracycline-induced; membrane fraction
T2 sequence (P04839 2-570 limits assumed): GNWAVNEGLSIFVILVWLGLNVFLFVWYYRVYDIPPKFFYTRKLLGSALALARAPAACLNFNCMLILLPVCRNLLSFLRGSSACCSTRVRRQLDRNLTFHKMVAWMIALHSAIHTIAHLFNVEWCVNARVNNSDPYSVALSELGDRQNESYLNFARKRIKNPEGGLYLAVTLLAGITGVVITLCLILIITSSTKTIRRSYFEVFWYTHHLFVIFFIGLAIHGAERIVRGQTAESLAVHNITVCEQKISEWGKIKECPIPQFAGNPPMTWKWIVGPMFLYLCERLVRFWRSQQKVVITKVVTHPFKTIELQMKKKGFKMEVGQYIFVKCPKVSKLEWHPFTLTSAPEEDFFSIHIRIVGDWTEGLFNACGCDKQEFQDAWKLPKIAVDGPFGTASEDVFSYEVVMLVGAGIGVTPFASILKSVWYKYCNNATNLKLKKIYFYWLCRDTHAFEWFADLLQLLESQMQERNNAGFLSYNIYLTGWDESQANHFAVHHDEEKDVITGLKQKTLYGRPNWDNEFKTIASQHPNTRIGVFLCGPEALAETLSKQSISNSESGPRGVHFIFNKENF
T2 sequence (P13498 2-195 partner limits assumed): T1 sequence (P13498 2-195 partner limits assumed)
As to the kind of experiment: ROS production by membranes expressing human Nox2, cell-free Amplex Red assay. It is filed as biochemical. The settings on record: cell-free membranes, Amplex Red; Cheng-Prusoff; average of at least three experiments in triplicate; read-out: Ki hNox2.
From the text: as §1
Human Nox1 (NM_007052.4), human NOX2 (NM_000397), and human NOX5 (NM_0245052244) cDNAs were cloned into the pcDNA5/TO (Invitrogen). Human p22 (NM_000101.2) was cloned into pcDNA3.1/Zeo (+) (Invitrogen), and human NOXA1 (AY255769.1) and human NOXO1 (AB097667) were cloned into the bi-cistronic pVITRO1-neo-mcs plasmid (Invivogen).
Cells were transfected by using the FuGENE 6 method. Cells stably expressing functional human Nox1 (hNOX1 T-REx™-CHO) were obtained by co-transfecting T-REx™-CHO cells with human Nox1, human p22, human NOXA1 and human NOXO1. Cells stably expressing functional human Nox2 (hNOX2 T-REx™-CHO) were obtained by co-transfecting T-REx™-CHO cells with human nox2, human p22 and human cofactors. Cells stably expressing functional human Nox5 (hNOX5 T-REx™-CHO) were obtained by transfecting T-REx™-CHO cells with human Nox5. Co-transfected cells were selected with the appropriate antibiotics for 10 days. For the selection, hygromycin and G418 were used at 2 mg/ml and zeocin at 0.1 mg/ml. For the establishment of each stably transfected cell line, a pool of antibiotic-resistant cells was generated. Cells were cloned by limiting dilution. Several clones were established and investigated for ROS production upon tetracycline-induced hNox expression using a cellular AR assay. The expression of NOXes was done with tetracycline (1 μg/ml) during 24 h prior to the assay.
as §2, §3
Antagonist activity of compounds was measured in the presence of increasing concentrations ranging from 1 nM to 100 μM. […]

One may read the Ki as a measure of affinity in units of concentration, obtained from inhibition or displacement. For `COc1ccc(-c2c3c(=O)n(-c4ccccc4Cl)[nH]c3cc(=O)n2Cc2cnccn2)cc1` [(2), 2-(2-chlorophenyl)-4-(4-methoxyphenyl)-5-(pyrazin-2-ylmethyl)-1H-pyrazolo[4,3-c]pyridine-3,6(2H,5H)-dione], the inhibition constant (Ki) is 48 nM on human Nox4 and 670 nM on human Nox2.

Take `COc1ccccc1-n1[nH]c2cc(=O)n(Cc3cnccn3)c(-c3ccc(Cl)cc3)c2c1=O` [(3), 4-(4-chlorophenyl)-2-(2-methoxyphenyl)-5-(pyrazin-2-ylmethyl)-1H-pyrazolo[4,3-c]pyridine-3,6(2H,5H)-dione]: the Ki on human Nox4 amounted to 57 nM; at human Nox2, 735 nM.

Take `O=c1c2c(-c3cc(Cl)ccc3F)n(Cc3ccncc3)c(=O)cc2[nH]n1-c1ccccc1Cl` [(12), 4-(5-chloro-2-fluorophenyl)-2-(2-chlorophenyl)-5-(pyridin-4-ylmethyl)-1H-pyrazolo[4,3-c]pyridine-3,6(2H,5H)-dione]: the Ki on human Nox4 was found to be 79 nM.

As to `COc1cccc(-c2c3c(=O)n(-c4ccccc4OC)[nH]c3cc(=O)n2Cc2ccn(C)n2)c1` [(20), 2-(2-methoxyphenyl)-4-(3-methoxyphenyl)-5-[(1-methyl-1H-pyrazol-3-yl)methyl]-1H-pyrazolo[4,3-c]pyridine-3,6(2H,5H)-dione], the Ki at human Nox4 amounted to 94 nM.

Take `COc1ccc(-c2c3c(=O)n(-c4ccccc4OC)[nH]c3cc(=O)n2Cc2ccn(C)n2)cc1` [(23), 2-(2-methoxyphenyl)-4-(4-methoxyphenyl)-5-[(1-methyl-1H-pyrazol-3-yl)methyl]-1H-pyrazolo[4,3-c]pyridine-3,6(2H,5H)-dione]: the Ki on human Nox4 is 98 nM.

Regarding `COc1cccc(-c2c3c(=O)n(-c4ccccc4OC)[nH]c3cc(=O)n2Cc2cccnc2)c1` [(24), 2-(2-methoxyphenyl)-4-(3-methoxyphenyl)-5-(pyridin-3-ylmethyl)-1H-pyrazolo[4,3-c]pyridine-3,6(2H,5H)-dione], the inhibitory constant (Ki) at human Nox4 is 99 nM.

For `O=c1c2c(-c3c(F)cccc3F)n(Cc3ccncc3)c(=O)cc2[nH]n1-c1ccccc1Cl` [(28), 2-(2-chlorophenyl)-4-(2,6-difluorophenyl)-5-(pyridin-4-ylmethyl)-1H-pyrazolo[4,3-c]pyridine-3,6(2H,5H)-dione], the Ki on human Nox4 worked out at 109 nM.

For `O=c1c2c(-c3cccc(Cl)c3F)n(Cc3ccncc3)c(=O)cc2[nH]n1-c1ccccc1Cl` [(31), 4-(3-chloro-2-fluorophenyl)-2-(2-chlorophenyl)-5-(pyridin-4-ylmethyl)-1H-pyrazolo[4,3-c]pyridine-3,6(2H,5H)-dione], at human Nox4, the Ki amounted to 112 nM.

For `COc1ccc(-c2c3c(=O)n(-c4ccccc4OC)[nH]c3cc(=O)n2Cc2cccnc2)cc1` [(33), 2-(2-methoxyphenyl)-4-(4-methoxyphenyl)-5-(pyridin-3-ylmethyl)-1H-pyrazolo[4,3-c]pyridine-3,6(2H,5H)-dione], on human Nox4, the inhibition constant (Ki) was determined as 115 nM.

Regarding `O=c1c2c(-c3cccc(Cl)c3F)n(Cc3cccnc3)c(=O)cc2[nH]n1-c1ccccc1Cl` [(38), 4-(3-chloro-2-fluorophenyl)-2-(2-chlorophenyl)-5-(pyridin-3-ylmethyl)-1H-pyrazolo[4,3-c]pyridine-3,6(2H,5H)-dione], the Ki at human Nox4 came to 129 nM.

Regarding `O=c1c2c(-c3c(F)cccc3F)n(Cc3cccnc3)c(=O)cc2[nH]n1-c1ccccc1Cl` [(40), 2-(2-chlorophenyl)-4-(2,6-difluorophenyl)-5-(pyridin-3-ylmethyl)-1H-pyrazolo[4,3-c]pyridine-3,6(2H,5H)-dione], the Ki on human Nox4 stood at 148 nM.

On to `COc1ccc(F)c(-c2c3c(=O)n(-c4ccccc4OC)[nH]c3cc(=O)n2Cc2cnccn2)c1` [(41), 4-(2-fluoro-5-methoxyphenyl)-2-(2-methoxyphenyl)-5-(pyrazin-2-ylmethyl)-1H-pyrazolo[4,3-c]pyridine-3,6(2H,5H)-dione], for which the Ki at human Nox4 worked out at 148 nM.

On to `CN(C)c1cccc(-c2c3c(=O)n(-c4ccccc4Cl)[nH]c3cc(=O)n2Cc2ccn(C)n2)c1` [(43), 2-(2-chlorophenyl)-4-[3-(dimethylamino)phenyl]-5-[(1-methyl-1H-pyrazol-3-yl)methyl]-1H-pyrazolo[4,3-c]pyridine-3,6(2H,5H)-dione], for which the Ki at human Nox4 was found to be 126 nM.
